The values below come from US11465982B2, “Pyridazines” (Boehringer Ingelheim International GmbH, priority 2019, dated 2022).

pIC50: −log10 of the molar value.

One experiment addresses Human ATX (Homo sapiens (Human), UniProt Q13822). As to the kind of experiment: Assay A: Biochemical ATX Assay. The note with it: 5 nM recombinant ATX, 18:1 LPC substrate, 2-h incubation at room temperature, formation of 18:1 LPA.
The target of a further experiment is ATX in human whole blood (Homo sapiens (Human), UniProt Q13822). The experiment is described as follows: Assay B: Whole-Blood ATX Assay. The experiment is classed as biochemical. As to conditions: 1 h at 37° C., formation of 18:2 LPA.
The subject of the next experiment is plasma LPA. As to the kind of experiment: Assay C: In Vivo (plasma LPA reduction after oral application to rats). More on the design: species or system rat. As to conditions: 5 mg/kg, plasma 8 hours post application, vs baseline, sum of LPA 16:0, 18:0, 18:1, 18:2, 20:4. As for the experimental part:
The test substance was solubilized in 0.5% natrosol supplemented with 0.015% Tween 80 for oral application to rats at a dose of 5 mg/kg. Blood samples were collected before compound administration and 8 hours post application on ice using EDTA as coagulation agent. Subsequently, plasma was prepared by centrifugation and stored until analysis at −20° C.
LPAs from plasma samples were extracted by using the procedure described by Scherer et al. (Clinical chemistry 2009, 55, 1218-22). 35 μL of heparinized plasma was mixed with 200 μL 40 mM disodium hydrogen phosphate buffer containing 30 mM citric acid (pH 4) and 1 μM 17:0 LPA (internal standard). Subsequently, 500 μL butanol was added and shaken vigorously for 10 min. Samples were centrifuged afterwards at 4000 rpm, 4° C., for 10 min. 500 μL of the organic upper phase was transferred to a fresh 96-deep-well plate and evaporated with a gentle nitrogen flow of 15 psi for 45 min. The resultant residual was dissolved in 100 μL ethanol prior to LC-MS analysis.
LC-MS Method for the Analytic of In Vivo Samples
A Triple Quad 6500 (ABSciex, Toronto, Canada) was equipped with an Agilent 1290 LC system (Agilent, Santa Clara, Calif.) a CTC autosampler and an Atlantis 50×2.1-mm, 3-μm HILIC LC column (Waters, Elstree, UK). Eluent A contained 0.2% formic acid and 50 mM ammonium formate in water, whereas eluent B consisted of 0.2% formic acid in acetonitrile. […] At 1.8 min, solvent B was set back to 95% and stayed constant for 0.7 min for re-equilibration of the column. The following LPA species were monitored (DP: declustering potential and CE: collision energy): 16:0 LPA at 409.2/152.8, DP=−150, CE=−28; 18:0 LPA at 437.3/152.8, DP=−60, CE=−28; 18:1 LPA at 435.2/152.8, DP=−40, CE=−28; 18:2 LPA at 433.2/152.8, DP=−150, CE=−28; 20:4 LPA at 457.2/152.8, DP=−100, CE=−29 and 17:0 LPA at 423.5/152.8, DP=−100, CE=−36. LPA depletion in percent was calculated based on the baseline LPA levels before test compound application. The sum of LPA refers to the species 16:0; 18:0; 18:1; 18:2 and 20:4

Protocol for ATX in human whole blood: 45 μL human whole-blood was supplemented with 5 μL of the test compound, dissolved in phosphate-buffered saline (concentration range 0.12 nM-100 μM). This mixture was incubated for 1 h at 37° C. and stopped by addition of 100 μL 40 mM disodium hydrogen phosphate buffer containing 30 mM citric acid (pH 4) and 1 μM 17:0 LPA (internal standard). LPA was extracted by addition of 500 μL 1-butanol, followed by 10-min centrifugation at 4000 rpm, 4° C. Prom the resultant organic supernatant, a 200 μL aliquot was transferred into a 96-deep-well plate and transferred to the RapidPire-based MS/MS measurement.
The RapidPire autosampler was coupled to a binary pump (Agilent 1290) and a Triple Quad 6500 (ABSciex, Toronto, Canada). This system was equipped with a 10-μL loop, 5-μL Waters Atlantis HILIC cartridge (Waters, Elstree, UK), 90% acetonitrile containing 10 mM ammonium acetate as eluent A and 40% acetonitrile containing 10 mM ammoniumacetate as eluent B. For details see (Bretschneider et al., SLAS Discovery, 2017, 22, 425-432). The MS was operated in negative mode with a source temperature of 550° C., curtain gas=35, gas 1=65, and gas 2=80. The following transitions and MS parameters (DP: declustering potential and CE: collision energy) for the respective LPAs were determined: 18:2 LPA at 433.2/152.8, DP=−150, CE=−27 and 17:0 LPA at 423.5/152.8, DP=−100.
The formation of 18:2 LPA was monitored and evaluated as ratio to 17:0 LPA.
Protocol for Human ATX: 5 nM recombinant ATX (Cayman Chemicals) was supplemented to 50 mM Tris buffer (pH 8.0) containing 3 mM KCl, 1 mM CaCl2, 1 mM MgCl2 0.14 mM NaCl, and 0.1% bovine serum albumin. Test compounds were dissolved in DMSO and tested in the range of 0.1 nM to 10 μM. The enzymatic reaction (22.5 μL) was started by addition of 2.5 μL 10 μM 18:1 LPC (Avanti Lipids, Alabaster, Ala., USA). After 2-h incubation at room temperature, the reaction was stopped by addition of 20 μL water containing 500 nM 20:4 LPA as internal standard and 100 μL 1-butanol for extracting LPA. Subsequently, the plates were centrifuged at 4000 rpm, 4° C., for 2 min. The resultant upper butanol phase was directly used for injection at a RapidFire system (Agilent).
The RapidFire autosampler was coupled to a binary pump (Agilent 1290) and a Triple Quad 6500 (ABSciex, Toronto, Canada). This system was equipped with a 10-μL loop, 5-μL Waters Atlantis HILIC cartridge (Waters, Elstree, UK), 90% acetonitrile containing 10 mM ammonium acetate as eluent A and 40% acetonitrile containing 10 mM ammoniumacetate as eluent B. For details see (Bretschneider et al., SLAS Discovery, 2017). 1 The MS was operated in negative mode with a source temperature of 550° C., curtain gas=35, gas 1=65, and gas 2=80. The following transitions and MS parameters (DP: declustering potential and CE: collision energy) for the respective LPAs were determined: 18:1 LPA at 435.2/152.8, DP=−40, CE=−28 and 20:4 LPA at 457.2/152.8, DP=−100, CE=−27).
The formation of 18:1 LPA was monitored and evaluated as ratio to 20:4 LPA.

As for `CC(=O)N1CCN(c2ccc(CNC(=O)C3(c4ccc(OCc5ccc(C(F)(F)F)nc5)nn4)CC3)cc2F)CC1` [Example 1.6], the pIC50 was 8.62 on Human ATX and 8.33 on ATX in human whole blood.

Take `CC(=O)N1CCC(c2ccc(CNC(=O)C3(c4ccc(OCc5ccc(C(F)(F)F)nc5)nn4)CC3)cc2)CC1` [Example 1.31]: the negative-log IC50 (pIC50) was 8.47 at Human ATX and 7.97 against ATX in human whole blood.

Turning to `CN1C(=O)NCC12CCN(c1ccc(CNC(=O)C3(c4ccc(OCc5ccc(C(F)F)nc5)nn4)CC3)cc1)CC2` [Example 1.9], the pIC50 at Human ATX was 8.35; against ATX in human whole blood, 8.03.

As to `CC(=O)N1C[C@@H]2CN(c3ccc(CNC(=O)C4(c5ccc(OCc6ccc(C(F)F)nc6)nn5)CC4)cc3)C[C@@H]2C1` [Example 1.24], the results for the pIC50 at Human ATX and on ATX in human whole blood were 8.42 and 8.34, respectively.

`CC(=O)N1C[C@@H]2CN(c3ccc(CNC(=O)C4(c5ccc(OCc6ccc(C(F)(F)F)nc6)nn5)CC4)cc3)C[C@@H]2C1` [Example 1.25]: the negative-log IC50 (pIC50) on Human ATX was 8.49; at ATX in human whole blood, 7.91.

Regarding `CC(=O)N1CCC2(C1)CN(c1ccc(CNC(=O)C3(c4ccc(OCc5ccc(C(F)(F)F)nc5)nn4)CC3)cc1)C2` [Example 1.14], the pIC50 is 8.31 on Human ATX and 7.95 on ATX in human whole blood.

On to `CC(=O)N1CCC2(CC1)CN(c1ccc(CNC(=O)C3(c4ccc(OCc5ccc(C(F)(F)F)nc5)nn4)CC3)cc1)C2` [Example 1.1, N-(4-(7-acetyl-2,7-diazaspiro[3.5]nonan-2-yl)benzyl)-1-(6-((6-(trifluoromethyl)pyridin-3-yl)methoxy)pyridazin-3-yl)cyclopropane-1-carboxamide], for which the pIC50 on Human ATX was 8.40; against ATX in human whole blood, 8.51. Moreover, the “LPA reduction at 8 h” value in the experiment with plasma LPA is given as 93.7%.

On to `CC(=O)N1CC2(C1)CN(c1ccc(CNC(=O)C3(c4ccc(OCc5ccc(C(F)F)nc5)nn4)CC3)cc1)C2` [Example 1.4], for which the figures for the negative-log IC50 (pIC50) at Human ATX and at ATX in human whole blood were 8.40 and 8.51, respectively. Besides, the “LPA reduction at 8 h” value with plasma LPA is 98.2%.

For `O=C1CCCN1C1CCN(c2ccc(CNC(=O)C3(c4ccc(OCc5ccc(C(F)(F)F)nc5)nn4)CC3)cc2)CC1` [Example 1.10], the figures for the pIC50 at Human ATX and against ATX in human whole blood were 8.62 and 8.15, respectively.

As for `CN1CC2(CC1=O)CN(c1ccc(CNC(=O)C3(c4ccc(OCc5ccc(C(F)(F)F)nc5)nn4)CC3)cc1)C2` [Example 1.7], the values for the pIC50 at Human ATX and on ATX in human whole blood were 8.05 and 8.24, respectively.

As for `CN1C(=O)NCC12CCN(c1ccc(CNC(=O)C3(c4ccc(OCc5ccc(C(F)(F)F)nc5)nn4)CC3)cc1)CC2` [Example 1.13], the pIC50 on Human ATX was 8.55; at ATX in human whole blood it was 7.98.

In the case of `CC(=O)N1CCC2(CC1)CN(c1ccc(CNC(=O)C3(c4ccc(OCc5ccc(C(F)F)nc5)nn4)CC3)nc1)C2` [Example 1.29], the negative-log IC50 (pIC50) is 8.28 on Human ATX and 8.29 against ATX in human whole blood.

For `CC(=O)N1CC2(CCN(c3ccc(CNC(=O)C4(c5ccc(OCc6ccc(C(F)F)nc6)nn5)CC4)cc3)C2)C1` [Example 1.8], the results for the pIC50 on Human ATX and against ATX in human whole blood were 8.39 and 8.14, respectively. For the same compound, the “LPA reduction at 8 h” value with plasma LPA was determined as 78.2%.

On to `CN1CC2(CC1=O)CN(c1ccc(CNC(=O)C3(c4ccc(OCc5ccc(C(F)F)nc5)nn4)CC3)cc1)C2` [Example 1.2], for which the pIC50 was 8.46 on Human ATX and 8.62 against ATX in human whole blood. Moreover, in the experiment on plasma LPA, the “LPA reduction at 8 h” value is on record as 90.6%.

For the compound `CC(=O)N1CCN(c2ccc(CNC(=O)C3(c4ccc(OCc5ccc(C(F)F)nc5)nn4)CC3)c(C(F)(F)F)c2)CC1` [Example 1.22], the negative logarithm of the IC50 (pIC50) on Human ATX and against ATX in human whole blood was 8.60 in each case.

Turning to `CC(=O)N1CCC2(CC1)CN(c1ccc(CNC(=O)C3(c4ccc(OCc5ccc(C(F)(F)F)nc5)nn4)CC3)cn1)C2` [Example 1.30], the results for the negative logarithm of the IC50 (pIC50) on Human ATX and on ATX in human whole blood were 8.47 and 7.81, respectively.

Turning to `CC(=O)N1CCC2(CC1)CN(c1ccc(CNC(=O)C3(c4ccc(OCc5ccc(C(F)F)nc5)nn4)CC3)cc1)C2` [Example 1.3], the negative-log IC50 (pIC50) was 8.43 on Human ATX and 8.55 at ATX in human whole blood. In the experiment on plasma LPA, the “LPA reduction at 8 h” value was found to be 95.0%.

Consider `CC(=O)N1CCN(c2ccc(CNC(=O)C3(c4ccc(OCc5ccc(C(F)(F)F)nc5)nn4)CC3)c(F)c2)CC1` [Example 1.5], for which the pIC50 on Human ATX was 8.42; on ATX in human whole blood it was 8.38.

In the case of `CC(=O)N1CC2CC1CN2c1ccc(CNC(=O)C2(c3ccc(OCc4ccc(C(F)(F)F)nc4)nn3)CC2)cc1` (centres unmarked) [Example 1.18], the results for the pIC50 on Human ATX and at ATX in human whole blood were 8.49 and 7.97, respectively.

Turning to `CC(=O)N1CCC2(CC1)CN(c1ccc(CNC(=O)C3(c4ccc(OCc5ccc(C(F)(F)F)nc5)nn4)CC3)nc1)C2` [Example 1.28], the pIC50 at Human ATX was 8.49; against ATX in human whole blood it was 8.19.

Turning to `CC(=O)N1CCN(c2ccc(CNC(=O)C3(c4ccc(OCc5ccc(C(F)(F)F)nc5)nn4)CC3)cc2)C(C)(C)C1` [Example 1.20], the negative-log IC50 (pIC50) was 8.40 on Human ATX and 8.17 on ATX in human whole blood.

With `CCc1nc2c(C)cc(N3CCN(CC(=O)N4CC(O)C4)CC3)cn2c1N(C)c1nc(-c2ccc(F)cc2)c(C#N)s1` [Example 2 in WO2014/139882, reference compound], the “LPA reduction at 8 h” value with plasma LPA is 58.1%.

For `CC(=O)N1CCC12CN(c1ccc(CNC(=O)C3(c4ccc(OCc5ccc(C(F)(F)F)nc5)nn4)CC3)cc1)C2` [Example 1.11], the pIC50 was 8.59 at Human ATX and 8.00 against ATX in human whole blood.

Regarding `CC(=O)N1CCN(c2ccc(CNC(=O)C3(c4ccc(OCc5ccc(C(F)(F)F)nc5)nn4)CC3)cc2C(F)(F)F)CC1` [Example 1.15], the pIC50 was 8.70 on Human ATX and 7.93 on ATX in human whole blood.

`CC(=O)N1CCN(c2ccc(CNC(=O)C3(c4ccc(OCc5ccc(C(F)F)nc5)nn4)CC3)cn2)CC1` [Example 1.27] gave a negative-log IC50 (pIC50) at ATX in human whole blood of 7.92.

Regarding `CC(=O)N1CC2(C1)CN(c1ccc(CNC(=O)C3(c4ccc(OCc5ccc(C(F)F)nc5)nn4)CC3)cc1F)C2` [Example 1.26], the pIC50 at Human ATX was 8.39; on ATX in human whole blood it was 8.41.

For the compound `CC(=O)N1CC2(C1)CN(c1ccc(CNC(=O)C3(c4ccc(OCc5ccc(C(F)(F)F)nc5)nn4)CC3)cc1F)C2` [Example 1.21], the pIC50 on Human ATX is 8.36; against ATX in human whole blood, 8.54. In addition, the “LPA reduction at 8 h” value with plasma LPA was 93.8%.

Take `CC(=O)N1CCN(c2ccc(CNC(=O)C3(c4ccc(OCc5ccc(C(F)(F)F)nc5)nn4)CC3)c(C(F)(F)F)c2)CC1` [Example 1.23]: the values for the negative logarithm of the IC50 (pIC50) on Human ATX and against ATX in human whole blood were 8.44 and 8.31, respectively.

In the case of `CC(=O)N1CCN(c2ccc(CNC(=O)C3(c4ccc(OCc5ccc(C(F)(F)F)nc5)nn4)CC3)cc2)CC1(C)C` [Example 1.19], the negative logarithm of the IC50 (pIC50) at Human ATX was 8.66; against ATX in human whole blood, 8.08.

Take `CC(=O)N1CCN(c2ccc(CNC(=O)C3(c4ccc(OCc5ccc(C(F)(F)F)nc5)nn4)CC3)cc2)CC1` [Example 1.12]: the pIC50 on Human ATX was 8.37; against ATX in human whole blood, 7.99. In addition, the “LPA reduction at 8 h” value with plasma LPA turned out to be 83.9%.

Consider `CC(=O)N1CC2(C1)CN(c1ccc(CNC(=O)C3(c4ccc(OCc5ccc(C(F)(F)F)nc5)nn4)CC3)cc1)C2` [Example 1.17], for which the negative-log IC50 (pIC50) is 8.66 at Human ATX and 8.19 against ATX in human whole blood. Besides, in the experiment with plasma LPA, the “LPA reduction at 8 h” value was 96.9%.

Turning to `CC(=O)N1CCN(c2ccc(CNC(=O)C3(c4ccc(OCc5ccc(C(F)F)nc5)nn4)CC3)cc2)CC1` [Example 1.16], the pIC50 on Human ATX was 8.47; on ATX in human whole blood it was 8.27. The “LPA reduction at 8 h” value with plasma LPA was 95.5%.

In general, pIC50 refers to the negative decadic logarithm of the IC50, by convention in mol/L.
